In patent publication US20230364079A1, “COMPOUND AS BRAIN-PERMEABLE BTK OR HER2 INHIBITOR, PREPARATION METHOD THEREFOR, AND USE THEREOF” (CHENGDU HYPERWAY PHARMACEUTICALS CO., LTD., priority 2020, published 2023):

How the values were obtained:
BTK wild-type kinase = BTK wild-type kinase (Homo sapiens (Human), UniProt Q06187); assay: BTK kinase activity inhibition test in vitro (Caliper EZ Reader); format: biochemical
Experimental: In the tests on the activity of inhibiting BTK and HER2 kinase in vitro in the examples of the present disclosure, powder of the compound was dissolved in 100% DMSO to prepare a 10 mM stock solution and stored at-20° C. in the dark. […] In addition, the compounds were subjected to experiments such as liver microsome metabolic stability, rat PK, rat brain penetration rate, and drug efficacy model in the examples of the present disclosure.
Compound powders were dissolved in 100% DMSO to make 10 mM stock solutions, which were stored at -20° C. in the dark.
2: Kinase Reaction Process
(1) Preparation of 1 × Kinase buffer.
(5) After centrifugation at 1000 rpm for 30 seconds, the reaction plate was shaken to mix well and incubated at room temperature for 10 min.
(6) A 5/3-fold final concentration of a mixed solution of ATP and Kinase substrate 2 was prepared with 1 × Kinase buffer.
(7) 15 µL of the mixed solution of ATP and substrate with 5/3-fold final concentration was added to start the reaction.
(8) The 384-well plate was centrifuged at 1000 rpm for 30 seconds, shaken to mix well, and incubated at room temperature for 10 min.
(9) 30 µL of a stop solution was added to stop the kinase reaction, and after centrifugation at 1000 rpm for 30 seconds, the plate was shaken to mix well;
(10) The conversion rate was read with Caliper EZ Reader.
where Conversion%_sample indicates the conversion rate reading of the sample; Conversion%_min is the average reading of the negative control wells, representing the conversion rate reading of the wells without enzyme activity; Conversion%_max is the average reading of the ratio of the positive control wells, representing the conversion rate reading of the wells without compound inhibition.
Dose-Response Curve Fitting
With the log value of the concentration as the X-axis, and the percentage inhibition rate as the Y-axis, the dose-effect curve was fitted using the log(inhibitor) vs. response-Variable slope of the analysis software GraphPad Prism 5, so as to determine the IC50 value of each compound on the enzyme activity.
The calculation formula was: […]

[1] = Pharmacokinetic test, oral, SD rats; format: in vivo; settings: oral 10 mg/kg, plasma; for AUC(0-inf) / Cmax / half-life: rat; for Cmax: read-out: Cmax; for half-life: read-out: T½ (converted)
Experimental: Each test compound was administered orally (10 mg/kg, 3 rats in each group) to SD rats for pharmacokinetic study. […] Animals were fasted overnight before oral administration, and fed again after 4 h of administration. […] At each collection time point, 3 whole blood samples were collected at a the collection volume of about 0.2-0.3 mL. […] The collected plasma was stored at -20° C. before analysis. 20 µL of plasma sample was added into a 1.6 mL 96-well deep-well plate, added with 200 µL of working internal standard solution (the same volume of vehicle was added to the blank instead of internal standard), vortexed for 1 min, and centrifuged at 5800 rpm for 10 min. 100 µL of the supernatant was added to a 96-well injection plate for LC-MS/MS analysis.

Sequence of BTK wild-type kinase (Q06187 whole entry): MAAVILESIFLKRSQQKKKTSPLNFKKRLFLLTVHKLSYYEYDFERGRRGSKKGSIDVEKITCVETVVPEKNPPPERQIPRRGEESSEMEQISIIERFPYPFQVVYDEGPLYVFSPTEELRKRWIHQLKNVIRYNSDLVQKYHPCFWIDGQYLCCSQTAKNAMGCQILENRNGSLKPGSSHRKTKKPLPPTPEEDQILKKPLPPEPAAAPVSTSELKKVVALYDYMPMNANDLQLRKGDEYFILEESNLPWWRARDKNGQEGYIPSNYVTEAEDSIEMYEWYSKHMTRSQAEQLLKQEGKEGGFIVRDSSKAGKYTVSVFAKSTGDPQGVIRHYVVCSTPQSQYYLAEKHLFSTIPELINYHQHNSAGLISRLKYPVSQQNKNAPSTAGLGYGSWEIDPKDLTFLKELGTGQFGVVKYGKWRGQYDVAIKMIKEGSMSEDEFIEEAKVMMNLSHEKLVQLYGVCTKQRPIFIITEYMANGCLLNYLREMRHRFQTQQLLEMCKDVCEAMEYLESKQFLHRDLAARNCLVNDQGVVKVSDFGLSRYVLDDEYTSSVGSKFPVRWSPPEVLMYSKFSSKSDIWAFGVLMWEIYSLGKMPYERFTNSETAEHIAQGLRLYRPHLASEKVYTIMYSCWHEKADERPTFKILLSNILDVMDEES

SMILES	IC50 (BTK wild-type kinase)	other results
COc1ccccc1C(=O)NCc1ccc(-c2nn(C3CCC(CO)OC3)c3ncnc(N)c23)cc1 (single isomer, unassigned) [Compound 60-B]	20 to 100 nM	Cl [1]: 188.82 mL/min/kg; AUC(0-inf) [1]: 889 ng·h/mL; Cmax [1]: 946 ng/mL; half-life [1]: 2.89 h
Nc1nccn2c(C3CCC(CO)OC3)nc(-c3ccc(C(=O)Nc4nccc(C(F)(F)F)c4F)cc3)c12 (stereo not drawn) [Compound 86]	100 to 1000 nM	
Nc1nccn2c(C3CCC(CO)OC3)nc(-c3ccc(C(=O)Nc4ncccc4F)cc3)c12 (stereo not drawn) [Compound 87]	100 to 1000 nM	
COc1ccccc1Oc1ccc(-c2nc(C3CCC(CO)OC3)n3ccnc(N)c23)cc1 (stereo not drawn) [Compound 88]	20 to 100 nM	
COc1cccc(Oc2ccc(-c3nc(C4CCC(CO)OC4)n4ccncc34)cc2)c1F (stereo not drawn) [Compound 90]	20 to 100 nM	
Cc1cccc(Oc2ccc(-c3nc(C45CCC(CO)(CC4)OC5)n4ccnc(N)c34)cc2)c1F [Compound 92]	< 5 nM	
Nc1nccn2c(C34CCC(CO)(CC3)OC4)nc(-c3ccc(Oc4cccc(C(F)(F)F)c4F)cc3)c12 [Compound 93]	5 to 20 nM	
Nc1nccn2c(C34CCC(CO)(CC3)OC4)nc(-c3ccc(Oc4cccc(Cl)c4F)cc3)c12 [Compound 94]	5 to 20 nM	
Nc1nccn2c(C34CCC(CO)(CC3)OC4)nc(-c3ccc(Oc4cccc(OC(F)(F)F)c4F)cc3)c12 [Compound 95]	5 to 20 nM	
COc1ccc(C#N)c(Oc2ccc(-c3nc(C4CCC(CO)OC4)n4ccnc(N)c34)cc2)c1 (stereo not drawn) [Compound 96]	20 to 100 nM	
Cc1cccnc1NC(=O)c1ccc(-c2nc(C3CCC(CO)OC3)n3ccnc(N)c23)cc1 (stereo not drawn) [Compound 97]	100 to 1000 nM	
COc1cccc(Oc2ccc(-c3nc(C4CCC(CO)OC4)n4ccnc(N)c34)c(F)c2)c1C#N (stereo not drawn) [Compound 98]	< 5 nM	
NC(=O)c1ccccc1C(=O)c1ccc(-c2nc(C3CCC(CO)OC3)n3ccnc(N)c23)cc1 (stereo not drawn) [Compound 99]	> 1000 nM	
COc1cccc(Oc2ccc(-c3nc(C4CCC(CO)OC4)n4c(Cl)cnc(N)c34)cc2)c1C#N (stereo not drawn) [Compound 100]	< 5 nM	
Nc1nccn2c(C3CCC(CO)OC3)nc(-c3ccc(C(=O)c4ccc(Cl)cc4)cc3)c12 (stereo not drawn) [Compound 102]	20 to 100 nM	
COc1cccc(Oc2ccc(-c3nc(C4CCC(CO)OC4)n4ccnc(N)c34)cc2)n1 (stereo not drawn) [Compound 104]	5 to 20 nM	
Nc1nccn2c(C3CCC(CO)OC3)nc(-c3ccc(C(=O)Nc4cc(C(F)(F)F)ccn4)cc3F)c12 (stereo not drawn) [Compound 105]	< 5 nM	
CNC(=O)c1cc(Oc2ccc(-c3nc(C4CCC(CO)OC4)n4ccnc(N)c34)cc2)ccn1 (stereo not drawn) [Compound 107]	100 to 1000 nM	
Nc1ncnc2c1c(-c1ccc(C(=O)Nc3ccccn3)cc1)nn2C1CCC(CO)OC1 (stereo not drawn) [Compound 108]	5 to 20 nM	
Nc1ncc(Cl)n2c(C3CCC(CO)OC3)nc(-c3ccc(C(=O)Nc4cc(C(F)(F)F)ccn4)cc3)c12 (stereo not drawn) [Compound 110]	< 5 nM	
COc1cccc(Oc2ccc(-c3nc(C45CCC(CO)(CC4)OC5)n4ccnc(N)c34)cc2)c1C(F)(F)F [Compound 112]	5 to 20 nM	
Nc1nccn2c(C3CCC(CO)OC3)nc(-c3ccc(C(F)(F)c4ccccc4)cc3F)c12 (stereo not drawn) [Compound 113]	5 to 20 nM	
Nc1nccn2c(C34CCC(CO)(CC3)OC4)nc(-c3ccc(C(F)(F)c4ccccc4)cc3F)c12 [Compound 114]	5 to 20 nM	
COc1cccc(Oc2ccc(-c3nc(C45CCC(CO)(CC4)OC5)n4ccnc(N)c34)c(F)c2)c1C#N [Compound 115]	< 5 nM	

SMILES	IC50 (BTK wild-type kinase)	other results
COc1cccc(Oc2ccc(-c3nc(C45CCC(CO)(CC4)OC5)n4ccnc(N)c34)cc2)c1C#N [Compound 116]	< 5 nM	Cl [1]: 84.73 mL/min/kg; AUC(0-inf) [1]: 2010 ng·h/mL; Cmax [1]: 858 ng/mL; half-life [1]: 1.35 h
Nc1nccn2c(C34CCC(CO)(CC3)OC4)nc(-c3ccc(C(=O)Nc4cc(C(F)(F)F)ccn4)cc3F)c12 [Compound 117]	< 5 nM	
COc1cccc(Oc2ccc(-c3nc(C4CCC(CO)OC4)n4ccnc(N)c34)cc2)c1C(F)(F)F (stereo not drawn) [Compound 119]	< 5 nM	Cl [1]: 75.92 mL/min/kg; AUC(0-inf) [1]: 2250 ng·h/mL; Cmax [1]: 663 ng/mL; half-life [1]: 0.64 h
COc1cccc(Oc2ccc(-c3nc(C45CCC(CO)(CC4)OC5)n4c(Cl)cnc(N)c34)cc2)c1C#N [Compound 122]	< 5 nM	
COc1cccc(C(F)(F)c2ccc(-c3nc(C4CCC(CO)OC4)n4ccnc(N)c34)cc2)c1C#N (stereo not drawn) [Compound 123]	20 to 100 nM	
COc1cccc(C(F)(F)c2ccc(-c3nc(C4CCC(CO)OC4)n4ccnc(N)c34)cc2)c1F (stereo not drawn) [Compound 126]	5 to 20 nM	
Nc1nccn2c(C3CCC(CO)OC3)nc(-c3ccc(C(F)(F)c4cccc(F)c4F)cc3)c12 (stereo not drawn) [Compound 127]	5 to 20 nM	
Nc1ncc(Cl)n2c(C34CCC(CO)(CC3)OC4)nc(-c3ccc(C(=O)Nc4cc(C(F)(F)F)ccn4)cc3)c12 [Compound 128]	< 5 nM	
COc1cccc(C(F)(F)c2ccc(-c3nc(C45CCC(CO)(CC4)OC5)n4ccnc(N)c34)cc2)c1F [Compound 129]	5 to 20 nM	
Nc1nccn2c(C34CCC(CO)(CC3)OC4)nc(-c3ccc(C(F)(F)c4cccc(F)c4F)cc3)c12 [Compound 130]	5 to 20 nM	
CC(C)(c1ccccc1)c1ccc(-c2nc(C3CCC(CO)OC3)n3ccnc(N)c23)cc1 (stereo not drawn) [Compound 131]	> 1000 nM	
COc1cccc(C(F)(F)c2ccc(-c3nc(C45CCC(CO)(CC4)OC5)n4ccnc(N)c34)cc2)c1 [Compound 132]	20 to 100 nM	
Nc1nccn2c(C3CCC(CO)OC3)nc(-c3ccc(C(=O)Nc4ccccc4F)cc3)c12 (stereo not drawn) [Compound 133]	100 to 1000 nM	
COc1cccc(Oc2ccc(-c3nc(C4CCC(CO)OC4)n4c(C)cnc(N)c34)cc2)c1F (stereo not drawn) [Compound 134]	5 to 20 nM	
N#Cc1ccnc(NC(=O)c2ccc(-c3nc(C45COC(CO)(C4)C5)n4ccnc(N)c34)cc2)c1 [Compound 135]	5 to 20 nM	
Nc1nccn2c(C34COC(CO)(C3)C4)nc(-c3ccc(C(=O)Nc4cc(C(F)(F)F)ccn4)cc3)c12 [Compound 136]	5 to 20 nM	
COc1cccc(Oc2ccc(-c3nc(C45COC(CO)(C4)C5)n4ccnc(N)c34)cc2)c1C#N [Compound 137]	5 to 20 nM	
Nc1nccn2c(C34COC(CO)(C3)C4)nc(-c3ccc(C(F)(F)c4ccccc4)cc3)c12 [Compound 138]	20 to 100 nM	
Nc1nccn2c(C34CCC(CO)(CC3)OC4)nc(-c3ccc(C(F)(F)c4ccc(F)c(Cl)c4)cc3)c12 [Compound 140]	100 to 1000 nM	
Nc1nccn2c(C34CCC(CO)(CC3)OC4)nc(-c3ccc(C(F)(F)c4ccc(F)cc4)cc3)c12 [Compound 141]	100 to 1000 nM	
Nc1nccn2c(C34CCC(CO)(CC3)OC4)nc(-c3ccc(C(F)(F)c4cccc(F)c4)cc3)c12 [Compound 142]	100 to 1000 nM	
Nc1nccn2c(C34CCC(CO)(CC3)OC4)nc(-c3ccc(C(F)(F)c4cccc(C5CC5)c4)cc3)c12 [Compound 143]	20 to 100 nM	
C=CC(=O)N1CCC[C@@H](n2nc(-c3ccc(Oc4ccccc4)cc3)c3c(N)ncnc32)C1 [Ibrutinib, reference compound]		AUC(0-inf) [1]: 362 ng·h/mL; Cmax [1]: 222 ng/mL
